Several values for one entry are separate records, joined by “and”; a condition that tells them apart may be missing. Equal values may be shown once. Where a name gives a salt, the structure may show the parent alone. Values belong to the compound of their own block, whether it stands above or below them.
Tests used:
Assay type in all cases: cell-based
[1] = target: T1, Kv1.5 I502A mutant channel (Homo sapiens, UniProt P22460, I502A); assay: Voltage-dependence of block (Woodhull fit), I502A Kv1.5; details: for blocking site, electrical distance across the membrane: Woodhull fit; for calculated binding site within the electric field (fractional electrical distance δ): from the inside of the pore
T1 construct: subcloned as a fragment back into full-length Kv1.5; expressed in transfected cells; host or cells: HEK293, transient transfection
T1 sequence (P22460 whole entry I502A, the tested form may be a part): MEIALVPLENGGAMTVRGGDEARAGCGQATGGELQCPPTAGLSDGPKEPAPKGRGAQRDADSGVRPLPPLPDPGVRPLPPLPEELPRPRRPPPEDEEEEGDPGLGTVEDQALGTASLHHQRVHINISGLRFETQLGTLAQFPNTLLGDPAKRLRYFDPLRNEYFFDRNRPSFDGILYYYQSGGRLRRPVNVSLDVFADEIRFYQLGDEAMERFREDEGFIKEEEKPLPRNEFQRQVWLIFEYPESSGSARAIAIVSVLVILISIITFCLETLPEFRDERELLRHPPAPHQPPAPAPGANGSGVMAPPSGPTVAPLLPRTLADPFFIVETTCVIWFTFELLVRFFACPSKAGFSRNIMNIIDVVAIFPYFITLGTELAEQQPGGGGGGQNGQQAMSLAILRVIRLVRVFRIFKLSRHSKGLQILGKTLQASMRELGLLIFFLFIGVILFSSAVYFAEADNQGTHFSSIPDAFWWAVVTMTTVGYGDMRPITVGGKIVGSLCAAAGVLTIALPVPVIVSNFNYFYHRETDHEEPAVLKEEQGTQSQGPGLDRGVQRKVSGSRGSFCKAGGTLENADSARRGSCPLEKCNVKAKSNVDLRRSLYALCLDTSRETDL
Method: (§1) Coverslips with adherent cells plated on the surface were placed in a superfusion chamber (volume 300 μl) containing the control bath solution at 22° C. Whole-cell current recording and analysis were carried out using an Axopatch 200B amplifier and pClamp10 software (Axon Instruments, CA, USA). Patch electrodes were pulled from thin-walled borosilicate glass (World Precision Instruments, FL, USA) on a horizontal micropipette puller (Sutter Instruments, CA, USA). […] Analogue capacity compensation and 80% series resistance compensation were used during whole cell measurements. Membrane potentials were not corrected for junction potentials that arise between the pipette and bath solution. For Kv1.5 current recordings, a holding potential of −80 mV was used. Data were sampled at 10-20 kHz and filtered at 5 to 10 kHz. To assess drug block, half-log escalating concentrations of drug were added to the flowing bath solution and current traces were recorded with 400 ms depolarizing pulses to +60 mV at a frequency of 0.1 Hz.
(§2) f=[D]/([D]+Kd*e^−δzFE/RT)
(§3) where F, R, z and T have their usual meanings, δ represents the fractional electrical distance, i.e., the fraction of the transmembrane electrical field sensed by a single charge at the receptor site. Kd* represents the binding affinity at the reference voltage (0 mV). The current amplitude (Idrug and Icontrol) was measured at the end of a 400 ms depolarization.
The amount of block was measured at the end of the pulse at the time indicated by the arrow on each set of data records, and, after normalization to the control, current density was plotted as a function of the depolarization potential (FIGS. 7B, 8B). Data were then fit to a standard model of drug block to obtain the electrical distance of the blocking site into the electric field from the inside of the channel (Woodhull, 1973).

[2] = target: T2, Kv1.5 I502F mutant channel (Homo sapiens, UniProt P22460, I502F); assay: Whole-cell patch-clamp block of mutant Kv1.5 current in HEK293 cells
T2 construct: subcloned as a fragment back into full-length Kv1.5; expressed in transfected cells; host or cells: HEK293, transient transfection
T2 sequence (P22460 whole entry I502F, the tested form may be a part): as the sequence (P22460 whole entry I502A, the tested form may be a part) above, with A502F counted along it
Method: (§4) Stable lines of HEK293 cells expressing Kv1.5, or transient transfection of mutant Kv1.5 channels were used in all experiments. […] (Coralville, Iowa, USA), and mutants were generated using the Stratagene Quikchange kit (Stratagene, Calif., USA). […] This was added to the cells for overnight incubation after washing the media with 900 μl of MEM with 10% FBS. […] Media contained 10% bovine serum and 0.5 mg/ml geneticin for stable lines. On the day before recording, stably-expressing cells were washed with MEM, treated with trypsin/EGTA for one minute and plated on 25 mm^2 coverslips. All cell culture supplies were obtained from Invitrogen (Mississauga, ON, Canada). Control bath solution contained (in mM): 5 KCl, 135 NaCl, 2.8 sodium acetate, 1 MgCl2, 10 HEPES and 1 CaCl2, adjusted to pH 7.4 with NaOH. Patch pipettes contained (in mM): 130 KCl, 5 EGTA, 1 MgCl2, 10 HEPES, 4 Na2ATP, and 0.1 GTP, adjusted to pH 7.2 with KOH. All chemicals used to make solutions were obtained from Sigma-Aldrich (Mississauga, ON, Canada). […] (Vancouver, BC, Canada) and prepared as a stock solution (50 mM) in H2O. […] DMSO concentrations for either drug never exceeded 0.1% v/v in the final experimental solutions. Coverslips with adherent cells plated on the surface were placed in a superfusion chamber (volume 300 μl) containing the control bath solution at 22° C. Whole-cell current recording and analysis were carried out using an Axopatch 200B amplifier and pClamp10 software (Axon Instruments, CA, USA). Patch electrodes were pulled from thin-walled borosilicate glass (World Precision Instruments, FL, USA) on a horizontal micropipette puller (Sutter Instruments, CA, USA). […] Analogue capacity compensation and 80% series resistance compensation were used during whole cell measurements. Membrane potentials were not corrected for junction potentials that arise between the pipette and bath solution. […] Data were sampled at 10-20 kHz and filtered at 5 to 10 kHz. […] Data are represented as mean±SE unless otherwise specified. For significance of differences, * represents p<0.05, ** p<0.01; statistical analysis was conducted using Student's t-test (unpaired). Clampfit software (Axon Instruments, CA, USA) was used to analyze current traces. Data from each test pulse (currents in the presence of drug) were normalized to control test pulse currents obtained before drug exposure. […] IC50 is the concentration producing half-maximal inhibition; and n is the Hill coefficient.

[3] = target: T3, Kv1.5 V505L mutant channel (Homo sapiens, UniProt P22460, V505L); assay: as above
T3 construct: subcloned as a fragment back into full-length Kv1.5; expressed in transfected cells; host or cells: HEK293, transient transfection
T3 sequence (P22460 whole entry V505L, the tested form may be a part): as the sequence (P22460 whole entry I502A, the tested form may be a part) above, with A502I, V505L counted along it
Method: as §4

[4] = target: T4, Kv1.5 I508Y mutant channel (Homo sapiens, UniProt P22460, I508Y); assay: as above
T4 construct: subcloned as a fragment back into full-length Kv1.5; expressed in transfected cells; host or cells: HEK293, transient transfection
T4 sequence (P22460 whole entry I508Y, the tested form may be a part): as the sequence (P22460 whole entry I502A, the tested form may be a part) above, with A502I, I508Y counted along it
Method: as §4

[5] = target: T1, Kv1.5 I502A mutant channel; assay: as above; details: for Fold change: IC50 of I502A relative to WT, decrease in potency
Method: as §4

[6] = target: T5, Kv1.5 V505A mutant channel (Homo sapiens, UniProt P22460, V505A); assay: as above; details: for Fold change: IC50 of V505A relative to WT, vernakalant potency reduced, flecainide potency increased
T5 construct: subcloned as a fragment back into full-length Kv1.5; expressed in transfected cells; host or cells: HEK293, transient transfection
T5 sequence (P22460 whole entry V505A, the tested form may be a part): as the sequence (P22460 whole entry I502A, the tested form may be a part) above, with A502I, V505A counted along it
Method: as §4

[7] = target: T6, Kv1.5 I508F mutant channel (Homo sapiens, UniProt P22460, I508F); assay: as above
T6 construct: subcloned as a fragment back into full-length Kv1.5; expressed in transfected cells; host or cells: HEK293, transient transfection
T6 sequence (P22460 whole entry I508F, the tested form may be a part): as the sequence (P22460 whole entry I502A, the tested form may be a part) above, with A502I, I508F counted along it
Method: as §4

[8] = target: T7, Kv1.5 I502L mutant channel (Homo sapiens, UniProt P22460, I502L); assay: as above
T7 construct: subcloned as a fragment back into full-length Kv1.5; expressed in transfected cells; host or cells: HEK293, transient transfection
T7 sequence (P22460 whole entry I502L, the tested form may be a part): as the sequence (P22460 whole entry I502A, the tested form may be a part) above, with A502L counted along it
Method: as §4

[9] = target: T8, Kv1.5 I508A mutant channel (Homo sapiens, UniProt P22460, I508A); assay: as above; details: for Fold change: IC50 of I508A relative to WT, vernakalant potency reduced, flecainide potency increased
T8 construct: subcloned as a fragment back into full-length Kv1.5; expressed in transfected cells; host or cells: HEK293, transient transfection
T8 sequence (P22460 whole entry I508A, the tested form may be a part): as the sequence (P22460 whole entry I502A, the tested form may be a part) above, with A502I, I508A counted along it
Method: as §4

[10] = target: T9, Kv1.5 V505F mutant channel (Homo sapiens, UniProt P22460, V505F); assay: as above
T9 construct: subcloned as a fragment back into full-length Kv1.5; expressed in transfected cells; host or cells: HEK293, transient transfection
T9 sequence (P22460 whole entry V505F, the tested form may be a part): as the sequence (P22460 whole entry I502A, the tested form may be a part) above, with A502I, V505F counted along it
Method: as §4

[11] = target: T10, Kv1.5 T479A mutant channel (Homo sapiens, UniProt P22460, T479A); assay: as above; details: for Fold change: IC50 of T479A relative to WT, potency increased
T10 construct: subcloned as a fragment back into full-length Kv1.5; expressed in transfected cells; host or cells: HEK293, transient transfection
T10 sequence (P22460 whole entry T479A, the tested form may be a part): as the sequence (P22460 whole entry I502A, the tested form may be a part) above, with T479A, A502I counted along it
Method: as §4

[12] = target: T5, Kv1.5 V505A mutant channel; assay: Voltage-dependence of block (Woodhull fit), V505A Kv1.5
Method: as §1, §2
as §3, with “Kd* represents the binding affinity at the reference voltage (0 mV).” left out, “depolarization. […]” for “depolarization.”

Compound: COc1ccc(CCO[C@@H]2CCCC[C@H]2N2CC[C@@H](O)C2)cc1OC [Vernakalant, 3-Pyrrolidinol, 1-[(1R,2R)-2-[2-(3,4-dimethoxyphenyl)ethoxy]cyclohexyl]-,hydrochloride, (3R)]
blocking site, electrical distance across the membrane [1]: ~40%
calculated binding site within the electric field (fractional electrical distance δ) [1]: 0.39
Hill coefficient ([2]; Kv1.5 I502F): 0.84
Fractional Block ± SEM ([2]; Kv1.5 I502F, 10 μM vernakalant): 0.10 ± 0.01
Hill coefficient [3]: 0.77
Fractional Block ± SEM ([3]; 10 μM vernakalant): 0.22 ± 0.07
Hill coefficient [4]: 1.46
Fractional Block ± SEM ([4]; 10 μM vernakalant): 0.21 ± 0.03
Hill coefficient ([5]; Kv1.5 I502A): 0.65
Fractional Block ± SEM ([5]; Kv1.5 I502A, 10 μM vernakalant): 0.07 ± 0.03
Hill coefficient ([6]; Kv1.5 V505A): 0.95
Fractional Block ± SEM ([6]; Kv1.5 V505A, 10 μM vernakalant): 0.21 ± 0.04
Hill coefficient ([7]; Kv1.5 I508F): 1.23
Fractional Block ± SEM ([7]; Kv1.5 I508F, 10 μM vernakalant): 0.94 ± 0.02
Hill coefficient ([8]; Kv1.5 I502L): 0.96
Fractional Block ± SEM ([8]; Kv1.5 I502L, 10 μM vernakalant): 0.33 ± 0.07
Hill coefficient ([9]; Kv1.5 I508A): 0.87
Fractional Block ± SEM ([9]; Kv1.5 I508A, 10 μM vernakalant): 0.21 ± 0.03
Hill coefficient ([10]; Kv1.5 V505F): 0.96
Fractional Block ± SEM ([10]; Kv1.5 V505F, 10 μM vernakalant): 0.27 ± 0.05
Hill coefficient ([11]; Kv1.5 T479A): 0.6
Fractional Block ± SEM ([11]; Kv1.5 T479A, 10 μM vernakalant): 0.77 ± 0.05

blocking site, electrical distance across the membrane [1]: 32%
calculated binding site within the electric field (fractional electrical distance δ) [1]: 0.32
change in electrical distance versus WT [12]: significant increase in distance
Fold change ([2]; IC50 of I502F relative to WT): 4.13
IC50 ([2]; Kv1.5 I502F): 164 ± 31.4 µM
Fold change [5]: 2.43
Fold change ([5]; listed as flecamide): 2.4
IC50 ([5]; Kv1.5 I502A): 92 µM
Fold change [6]: 2.92
Fold change ([6]; listed as flecamide): 3
IC50 ([6]; Kv1.5 V505A): 13.1 ± 3.58 µM
Fold change ([7]; IC50 of I508F relative to WT, direction differs by drug): 1.96
IC50 ([7]; Kv1.5 I508F): 74.7 ± 5.37 µM
Fold change ([8]; IC50 of I502L relative to WT, direction differs by drug): 3.55
IC50 ([8]; Kv1.5 I502L): 10.8 ± 1.09 µM
Fold change [9]: 5.15
Fold change ([9]; listed as flecamide): 5.2
IC50 ([9]; Kv1.5 I508A): 7.39 ± 0.92 µM
Fold change ([10]; IC50 of V505F relative to WT, direction differs by drug): 8.93
IC50 ([10]; Kv1.5 V505F): 4.3 µM and 4.27 µM
Fold change [11]: 200
Fold change ([11]; listed as flecamide): 238
IC50 ([11]; Kv1.5 T479A): 190 ± 40 nM
Compound: O=C(NCC1CCCCN1)c1cc(OCC(F)(F)F)ccc1OCC(F)(F)F (stereo not drawn) [Flecainide]

— patent US20090053721A1, “VOLTAGE-GATED ION CHANNEL MUTANTS FOR USE IN IDENTIFYING ION CHANNEL MODULATING COMPOUNDS” (CARDIOME PHARMA CORP., priority 2007, published 2009)
